Data: PubChem BioAssay (NCI)
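Here, GI50 denotes the concentration required for 50% inhibition of growth. The concentration for full growth arrest is given as TGI.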

Experiments:
Experiment in all cases: NCI tumour cell line growth inhibition, 384-well format
UACC-62 melanoma = tested on: UACC-62 melanoma
HOP-62 NSCLC = tested on: HOP-62 NSCLC
SF-539 CNS = tested on: SF-539 CNS
SN12C renal = tested on: SN12C renal
NCI-H460 NSCLC = tested on: NCI-H460 NSCLC
RXF 393 renal = tested on: RXF 393 renal
RPMI-8226 leukemia = tested on: RPMI-8226 leukemia
SK-OV-3 ovarian = tested on: SK-OV-3 ovarian
MALME-3M melanoma = tested on: MALME-3M melanoma
A549 NSCLC = tested on: A549 NSCLC
SF-268 CNS = tested on: SF-268 CNS
NCI/ADR-RES ovarian = tested on: NCI/ADR-RES ovarian
UO-31 renal = tested on: UO-31 renal
MCF7 breast = tested on: MCF7 breast
DU-145 prostate = tested on: DU-145 prostate
NCI-H322M lung = tested on: NCI-H322M lung
A498 renal = tested on: A498 renal
HOP-92 NSCLC = tested on: HOP-92 NSCLC
SR leukemia = tested on: SR leukemia
CCRF-CEM leukemia = tested on: CCRF-CEM leukemia
SK-MEL-5 melanoma = tested on: SK-MEL-5 melanoma
HCT-116 colon = tested on: HCT-116 colon
UACC-257 melanoma = tested on: UACC-257 melanoma
SNB-19 CNS = tested on: SNB-19 CNS
KM12 colon = tested on: KM12 colon
HL-60(TB) leukemia = tested on: HL-60(TB) leukemia
OVCAR-5 ovarian = tested on: OVCAR-5 ovarian
HCT-15 colon = tested on: HCT-15 colon
T-47D breast = tested on: T-47D breast
NCI-H522 lung = tested on: NCI-H522 lung
IGROV1 ovarian = tested on: IGROV1 ovarian
K-562 leukemia = tested on: K-562 leukemia
SK-MEL-28 melanoma = tested on: SK-MEL-28 melanoma
U251 glioblastoma = tested on: U251 glioblastoma
786-0 renal = tested on: 786-0 renal
MDA-MB-435 melanoma = tested on: MDA-MB-435 melanoma
CAKI-1 renal = tested on: CAKI-1 renal
HCC-2998 colon = tested on: HCC-2998 colon
HT29 colon = tested on: HT29 colon
TK-10 renal = tested on: TK-10 renal
BT-549 breast = tested on: BT-549 breast
OVCAR-8 ovarian = tested on: OVCAR-8 ovarian
MDA-MB-468 breast = tested on: MDA-MB-468 breast
PC-3 prostate = tested on: PC-3 prostate
MDA-MB-231 breast = tested on: MDA-MB-231 breast
ACHN renal = tested on: ACHN renal
SK-MEL-2 melanoma = tested on: SK-MEL-2 melanoma
OVCAR-4 ovarian = tested on: OVCAR-4 ovarian
M14 melanoma = tested on: M14 melanoma
MOLT-4 leukemia = tested on: MOLT-4 leukemia
COLO 205 colon = tested on: COLO 205 colon
SF-295 CNS = tested on: SF-295 CNS
OVCAR-3 ovarian = tested on: OVCAR-3 ovarian
NCI-H23 lung = tested on: NCI-H23 lung
LOX IMVI melanoma = tested on: LOX IMVI melanoma
SW-620 colon = tested on: SW-620 colon
NCI-H226 lung = tested on: NCI-H226 lung

COCCNCc1ccc(-c2cc3nccc(Oc4ccc(NC(=O)C5(C(=O)Nc6ccc(F)cc6)CC5)cc4F)c3s2)nc1
GI50 (UACC-62 melanoma): 1240 nM | TGI (UACC-62 melanoma): 2510 nM | GI50 (HOP-62 NSCLC): 1810 nM | TGI (HOP-62 NSCLC): 3210 nM | GI50 (SF-539 CNS): 466 nM | TGI (SF-539 CNS): 1910 nM | GI50 (SN12C renal): 346 nM | TGI (SN12C renal): 1670 nM | GI50 (NCI-H460 NSCLC): 1450 nM | TGI (NCI-H460 NSCLC): 2790 nM | GI50 (RXF 393 renal): 768 nM | TGI (RXF 393 renal): 2050 nM | GI50 (RPMI-8226 leukemia): 499 nM | TGI (RPMI-8226 leukemia): 1560 nM | GI50 (SK-OV-3 ovarian): 1180 nM | TGI (SK-OV-3 ovarian): 2420 nM | GI50 (MALME-3M melanoma): 1030 nM | TGI (MALME-3M melanoma): 2200 nM | GI50 (A549 NSCLC): 1280 nM | TGI (A549 NSCLC): 2560 nM | GI50 (SF-268 CNS): 1570 nM | TGI (SF-268 CNS): 2930 nM | GI50 (NCI/ADR-RES ovarian): 1560 nM | TGI (NCI/ADR-RES ovarian): 2950 nM | GI50 (UO-31 renal): 1380 nM | TGI (UO-31 renal): 2700 nM | GI50 (MCF7 breast): 1150 nM | TGI (MCF7 breast): 2370 nM | GI50 (DU-145 prostate): 1750 nM | TGI (DU-145 prostate): 3140 nM | GI50 (NCI-H322M lung): 1400 nM | TGI (NCI-H322M lung): 2720 nM | GI50 (A498 renal): 1410 nM | TGI (A498 renal): 2720 nM | GI50 (HOP-92 NSCLC): 166 nM | TGI (HOP-92 NSCLC): 1050 nM | GI50 (SR leukemia): 1130 nM | TGI (SR leukemia): 2340 nM | GI50 (CCRF-CEM leukemia): 1420 nM | TGI (CCRF-CEM leukemia): 2730 nM | GI50 (SK-MEL-5 melanoma): 1130 nM | TGI (SK-MEL-5 melanoma): 2350 nM | GI50 (HCT-116 colon): 1100 nM | TGI (HCT-116 colon): 2310 nM | GI50 (UACC-257 melanoma): 186 nM | TGI (UACC-257 melanoma): 396 nM | GI50 (SNB-19 CNS): 1900 nM | TGI (SNB-19 CNS): 3330 nM | GI50 (KM12 colon): 30.9 nM | TGI (KM12 colon): 1080 nM | GI50 (HL-60(TB) leukemia): 1480 nM | TGI (HL-60(TB) leukemia): 2800 nM | GI50 (OVCAR-5 ovarian): 1630 nM | TGI (OVCAR-5 ovarian): 3100 nM | GI50 (HCT-15 colon): 1280 nM | TGI (HCT-15 colon): 2550 nM | GI50 (T-47D breast): 1160 nM | TGI (T-47D breast): 2390 nM | GI50 (NCI-H522 lung): 1280 nM | TGI (NCI-H522 lung): 2540 nM | GI50 (IGROV1 ovarian): 1360 nM | TGI (IGROV1 ovarian): 2670 nM | GI50 (K-562 leukemia): 101 nM | TGI (K-562 leukemia): 219 nM | GI50 (SK-MEL-28 melanoma): 1430 nM | TGI (SK-MEL-28 melanoma): 2750 nM | GI50 (U251 glioblastoma): 1450 nM | TGI (U251 glioblastoma): 2780 nM | GI50 ([…]-0 renal): 1550 nM | TGI (786-0 renal): 2890 nM | GI50 (MDA-MB-435 melanoma): 1370 nM | TGI (MDA-MB-435 melanoma): 2680 nM | GI50 (CAKI-1 renal): 1250 nM | TGI (CAKI-1 renal): 2560 nM | GI50 (HCC-2998 colon): 1480 nM | TGI (HCC-2998 colon): 2810 nM | GI50 (HT29 colon): 574 nM | TGI (HT29 colon): 1840 nM | GI50 (TK-10 renal): 1690 nM | TGI (TK-10 renal): 3110 nM | GI50 (BT-549 breast): 1620 nM | TGI (BT-549 breast): 2980 nM | GI50 (OVCAR-8 ovarian): 1570 nM | TGI (OVCAR-8 ovarian): 2920 nM | GI50 (MDA-MB-468 breast): 1940 nM | TGI (MDA-MB-468 breast): 3360 nM | GI50 (PC-3 prostate): 1690 nM | TGI (PC-3 prostate): 3090 nM | GI50 (MDA-MB-231 breast): 1320 nM | TGI (MDA-MB-231 breast): 2600 nM | GI50 (ACHN renal): 682 nM | TGI (ACHN renal): 1960 nM | GI50 (SK-MEL-2 melanoma): 1410 nM | TGI (SK-MEL-2 melanoma): 2710 nM | GI50 (OVCAR-4 ovarian): 1360 nM | TGI (OVCAR-4 ovarian): 2660 nM | GI50 (M14 melanoma): 1370 nM | TGI (M14 melanoma): 2670 nM | GI50 (MOLT-4 leukemia): 477 nM | TGI (MOLT-4 leukemia): 1630 nM | GI50 (COLO 205 colon): 1140 nM | TGI (COLO 205 colon): 2370 nM | GI50 (SF-295 CNS): 396 nM | TGI (SF-295 CNS): 1950 nM | GI50 (OVCAR-3 ovarian): 1590 nM | TGI (OVCAR-3 ovarian): 2960 nM | GI50 (NCI-H23 lung): 414 nM | TGI (NCI-H23 lung): 1960 nM | GI50 (LOX IMVI melanoma): 2260 nM | TGI (LOX IMVI melanoma): 3730 nM | GI50 (SW-620 colon): 1260 nM | TGI (SW-620 colon): 2530 nM | GI50 (NCI-H226 lung): 1580 nM | TGI (NCI-H226 lung): 2960 nM
